Test results as given in patent US8207172B2 (Bayer Intellectual Property GmbH, priority 2004, dated 2012).
Where a name gives a salt, the structure may show the parent alone.

What was measured:
[1] = tested on: A431 cells (human epidermoid carcinoma); test: In vitro tumor cell proliferation assay (Cell Titer-Glo luminescent cell viability), A431; type: cell-based; conditions: A-431, 72 h, 72 hours of drug exposure, ATP luminescence readout, read-out: IC50, anti-proliferative activity (inhibition of cell proliferation)
Procedure, shortened: (§1)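 Seeding density 2.5×10^3 cells/well; 72 h drug exposure at 37° C; endpoint CellTiter-Glo luminescence, reported as IC50.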

[2] = tested on: BT474 (human breast carcinoma); test: In vitro tumor cell proliferation assay (Cell Titer-Glo luminescent cell viability), BT474; type: cell-based; conditions: BT-474, 72 h, BT474 cells, 72 hours of drug exposure, ATP luminescence readout, read-out: IC50, anti-proliferative activity (inhibition of cell proliferation)
Procedure, shortened: as §1

SMILES | IC50 [1] [µM] | IC50 [2] [µM]
COCCNCCn1ncc2c1CCc1c-2sc2ncnc(Nc3ccc(OCc4ccccn4)c(Cl)c3)c12 [Example 113, N-[3-chloro-4-(pyridin-2-ylmethoxy)phenyl]-3-{2-[(2-methoxyethyl)amino]ethyl}-4,5-dihydro-3H-pyrimido[5′,4′:4,5]thieno[2,3-e]indazol-6-amine] | ≤ 50 | ≤ 1
O=C(CN1CCNCC1)N1CCC(n2cc3c(n2)CCc2c-3sc3ncnc(Nc4ccc(OCc5cccc(F)c5)c(Cl)c4)c23)CC1 [Example 221, N-{3-chloro-4-[(3-fluorobenzyl)oxy]phenyl}-2-[1-(piperazin-1-ylacetyl)piperidin-4-yl]-4,5-dihydro-2H-pyrimido[5′,4′:4,5]thieno[2,3-e]indazol-6-amine] | ≤ 50 | ≤ 1
Clc1cc(Nc2ncnc3sc4c(c23)CCc2nn(CCN3CCOCC3)cc2-4)ccc1OCc1ccccn1 [Example 106, N-[3-chloro-4-(pyridin-2-ylmethoxy)phenyl]-2-(2-morpholin-4-ylethyl)-4,5-dihydro-2H-pyrimido[5′,4′:4,5]thieno[2,3-e]indazol-6-amine] | ≤ 50 | ≤ 1
Clc1cc(Nc2ncnc3sc4c(c23)CCc2c-4cnn2CCN2CCOCC2)ccc1OCc1ccccn1 [Example 111, N-[3-chloro-4-(pyridin-2-ylmethoxy)phenyl]-3-(2-morpholin-4-ylethyl)-4,5-dihydro-3H-pyrimido[5′,4′:4,5]thieno[2,3-e]indazol-6-amine] | ≤ 50 | ≤ 1
Fc1cccc(COc2ccc(Nc3ncnc4sc5c(c34)CCc3c-5cnn3CCN3CCOCC3)cc2Cl)c1 [Example 86, N-{3-chloro-4-[(3-fluorobenzyl)oxy]phenyl}-3-(2-morpholin-4-ylethyl)-4,5-dihydro-3H-pyrimido[5′,4′:4,5]thieno[2,3-e]indazol-6-amine] | ≤ 50 | ≤ 1
Fc1ccc(Nc2ncnc3sc4c(c23)CCc2nn(CCN3CCOCC3)cc2-4)cc1Cl [Example 5, N-(3-chloro-4-fluorophenyl)-2-(2-morpholin-4-ylethyl)-4,5-dihydro-2H-pyrimido[5′,4′:4,5]thieno[2,3-e]indazol-6-amine] | ≤ 5 | ≤ 5
OCCCn1ncc2c1CCc1c-2sc2ncnc(Nc3ccc(OCc4cccc(F)c4)c(Cl)c3)c12 [Example 268, 3-[6-({3-chloro-4-[(3-fluorobenzyl)oxy]phenyl}amino)-4,5-dihydro-3H-pyrimido[5′,4′:4,5]thieno[2,3-e]indazol-3-yl]propan-1-ol] | ≤ 50 | ≤ 1
CN1CCC(Cn2cc3c(n2)CCc2c-3sc3ncnc(Nc4ccc(OCc5cccc(F)c5)c(Cl)c4)c23)CC1 [Example 236, N-{3-chloro-4-[(3-fluorobenzyl)oxy]phenyl}-2-[(1-methylpiperidin-4-yl)methyl]-4,5-dihydro-2H-pyrimido[5′,4′:4,5]thieno-[2,3-e]indazol-6-amine] | ≤ 5 | ≤ 1
CC(C)CN1CCC(CCn2cc3c(n2)CCc2c-3sc3ncnc(Nc4ccc(OCc5cccc(F)c5)c(Cl)c4)c23)CC1 [Example 251, N-{3-chloro-4-[(3-fluorobenzyl)oxy]phenyl}-2-[2-(1-isobutylpiperidin-4-yl)ethyl]-4,5-dihydro-2H-pyrimido[5′,4′:4,5]thieno[2,3-e]indazol-6-amine] | ≤ 5 | ≤ 1
Fc1cccc(COc2ccc(Nc3ncnc4sc5c(c34)CCc3nn(CCCl)cc3-5)cc2Cl)c1 [Example 79, 2-(2-chloroethyl)-N-{3-chloro-4-[(3-fluorobenzyl)oxy]phenyl}-4,5-dihydro-2H-pyrimido[5′,4′:4,5]thieno[2,3-e]indazol-6-amine] | ≤ 50 | ≤ 1
O=C(Cn1ncc2c1CCc1c-2sc2ncnc(Nc3ccc(OCc4cccc(F)c4)c(Cl)c3)c12)N1CC[C@@H](O)C1 [Example 206, (3R)-1-{[6-({3-chloro-4-[(3-fluorobenzyl)oxy]phenyl}amino)-4,5-dihydro-3H-pyrimido[5′,4′:4,5]thieno[2,3-e]indazol-3-yl]acetyl}pyrrolidin-3-ol] | ≤ 5 | ≤ 1
c1ccc(Cn2ncc3cc(Nc4ncnc5sc6c(c45)CCc4nn(CCN5CCOCC5)cc4-6)ccc32)cc1 [Example 304, N-(1-benzyl-1H-indazol-5-yl)-2-(2-morpholin-4-ylethyl)-4,5-dihydro-2H-pyrimido[5′,4′:4,5]thieno[2,3-e]indazol-6-amine] | ≤ 50 | ≤ 1
OC[C@H](O)Cn1cc2c(n1)CCc1c-2sc2ncnc(Nc3ccc(F)c(Cl)c3)c12 [Example 44, (R)-3-[6-(3-Chloro-4-fluoro-phenylamino)-4,5-dihydro-10-thia-2,3,7,9-tetraaza-cyclopenta[a]fluoren-2-yl}-propane-1,2-diol] | ≤ 5 | ≤ 1
CN1CCN(CCn2cc3c(n2)CCc2c-3sc3ncnc(Nc4ccc(OCc5cccc(Cl)c5)c(Cl)c4)c23)CC1 [Example 333, N-{3-chloro-4-[(3-chlorobenzyl)oxy]phenyl}-2-[2-(4-methylpiperazin-1-yl)ethyl]-4,5-dihydro-2H-pyrimido[5′,4′:4,5]thieno[2,3-e]indazol-6-amine] | ≤ 5 | ≤ 1
CN(C)[C@@H]1CCN(CCn2cc3c(n2)CCc2c-3sc3ncnc(Nc4ccc(F)c(Cl)c4)c23)C1 [Example 3, N-(3-chloro-4-fluorophenyl)-2-{2-[(3R)-3-(dimethylamino)pyrrolidin-1-yl]ethyl}-4,5-dihydro-2H-pyrimido[5′,4′:4,5]thieno[2,3-e]indazol-6-amine] | ≤ 5 | ≤ 5
CN(C)CCNCCn1cc2c(n1)CCc1c-2sc2ncnc(Nc3ccc(OCc4cccc(F)c4)c(Cl)c3)c12 [Example 67, N′-{2-[6-({3-chloro-4-[(3-fluorobenzyl)oxy]phenyl}amino)-4,5-dihydro-2H-pyrimido[5′,4′:4,5]thieno[2,3-e]indazol-2-yl]ethyl}-N,N-dimethylethane-1,2-diamine] | ≤ 5 | ≤ 1
CC(C)(C)[Si](C)(C)OCCn1cc2c(n1)CCc1c-2sc2ncnc(Nc3ccc(OCc4cccc(F)c4)c(Cl)c3)c12 [Example 55, 2-(2-{[tert-butyl(dimethyl)silyl]oxy}ethyl)N-{3-chloro-4-[(3-fluorobenzyl)oxy]phenyl}-4,5-dihydro-2H-pyrimido[5′,4′:4,5]thieno[2,3-e]indazol-6-amine] | ≤ 50 | ≤ 5
Fc1ccc(Nc2ncnc3sc4c(c23)CCc2nn(CCN3CCN(c5cnccn5)CC3)cc2-4)cc1Cl [Example 22, N-(3-chloro-4-fluorophenyl)-2-[2-(4-pyrazin-2-ylpiperazin-1-yl)ethyl]-4,5-dihydro-2H-pyrimido[5′,4′:4,5]thieno[2,3-e]indazol-6-amine] | ≤ 5 | ≤ 5
O[C@H](CNCCN1CCOCC1)Cn1ncc2c1CCc1c-2sc2ncnc(Nc3ccc(OCc4cccc(F)c4)c(Cl)c3)c12 [Example 165, (2R)-1-[6-({3-chloro-4-[(3-fluorobenzyl)oxy]phenyl}amino)-4,5-dihydro-3H-pyrimido[5′,4′:4,5]thieno[2,3-e]indazol-3-yl]-3-[(2-morpholin-4-ylethyl)amino]propan-2-ol] | ≤ 50 | ≤ 1
Cc1cc(Nc2ncnc3sc4c(c23)CCc2nn(CCN3CCN(C)CC3)cc2-4)ccc1OCc1cccc(F)c1 [Example 335, N-{4-[(3-fluorobenzyl)oxy]-3-methylphenyl}-2-[2-(4-methylpiperazin-1-yl)ethyl]-4,5-dihydro-2H-pyrimido[5′,4′:4,5]thieno[2,3-e]indazol-6-amine] | ≤ 5 | ≤ 1
Clc1cc(Nc2ncnc3sc4c(c23)CCc2nn(CCn3ccnc3)cc2-4)ccc1OCc1ccccn1 [Example 104, N-[3-chloro-4-(pyridin-2-ylmethoxy)phenyl]-2-[2-(1H-imidazol-1-yl)ethyl]-4,5-dihydro-2H-pyrimido[5′,4′:4,5]thieno[2,3-e]indazol-6-amine] | ≤ 50 | ≤ 1
CNC[C@@H](O)Cn1cc2c(n1)CCc1c-2sc2ncnc(Nc3ccc(OCc4cccc(F)c4)c(Cl)c3)c12 [Example 155, (2R)-1-[6-({3-chloro-4-[(3-fluorobenzyl)oxy]phenyl}amino)-4,5-dihydro-2H-pyrimido[5′,4′:4,5]thieno[2,3-e]indazol-2-yl]-3-(methylamino)propan-2-ol trifluoroacetate (salt)] | ≤ 50 | ≤ 1
CN1CCN(CCn2cc3c(n2)CCc2c-3sc3ncnc(Nc4ccc5c(cnn5Cc5ccccn5)c4)c23)CC1 [Example 338, 2-[2-(4-methylpiperazin-1-yl)ethyl]-N-[1-(pyridin-2-ylmethyl)-1H-indazol-5-yl]-4,5-dihydro-2H-pyrimido[5′,4′:4,5]thieno[2,3-e]indazol-6-amine] | ≤ 50 | ≤ 1
Fc1cccc(COc2ccc(Nc3ncnc4sc5c(c34)CCc3nn(CCC4CCN(Cc6ccco6)CC4)cc3-5)cc2Cl)c1 [Example 248, N-{3-chloro-4-[(3-fluorobenzyl)oxy]phenyl}-2-{2-[1-(2-furylmethyl)piperidin-4-yl]ethyl}-4,5-dihydro-2H-pyrimido[5′,4′:4,5]thieno[2,3-e]indazol-6-amine] | ≤ 5 | ≤ 1
O=C(CCl)N1CCC(n2cc3c(n2)CCc2c-3sc3ncnc(Nc4ccc(OCc5cccc(F)c5)c(Cl)c4)c23)CC1 [Example 218, 2-[1-(chloroacetyl)piperidin-4-yl]-N-{3-chloro-4-[(3-fluorobenzyl)oxy]phenyl}-4,5-dihydro-2H-pyrimido[5′,4′:4,5]thieno[2,3-e]indazol-6-amine] | ≤ 50 | ≤ 1
